# What was measured:
# HeLa cells in metaphase = assay: Short treatment and washout, spindle recovery; type: cell-based, human; details: 5 minutes treatment, washout, imaged after 40 minutes
# Excerpt: For each condition, 20,000 cells were counted per replicate (N=3). Line graphs (right) were made to better illustrate the relative changes in the cell cycle phases for the different treatments. Bars show standard deviation. The asterisks indicate the first statistically significant change in the G0/G1 and G2/M populations determined by a two-way ANOVA with a post-hoc Tukey's multiple comparisons test using 95% confidence intervals. FIG. 2B) is a line graph showing the percentage of HCT116 (p53−/−) cells, A549 cells, HeLa cells and H1299 cells in mitosis after treatment with various concentrations of C75 for one population doubling time. All of the cell lines show an increase in the proportion of mitotic cells after treatment with 200 nM C75. The bars indicate standard deviation. […]
# (§1) C75 was also tested for efficacy in different cancer cell lines. […] To further assess the role of C75 in disrupting spindles, HeLa cells were treated with 300 nM C75 for 4 hours and the spindle phenotypes were analyzed in more detail (FIG. 2E). […] To assess the affect of C75 on centrosomes, HeLa cells were treated with C75 or nocodazole (a drug that causes microtubule depolymerization as a control) for a short period of time (5 minutes), then the drugs were removed and the cells were analyzed for spindle phenotypes (schematic in FIG. 2G). […]
# HFF-1 cells = assay: Spindle phenotypes, fixed cells stained for γ-tubulin and ACA; type: cell-based; details: 300 nM for 4 hours
# Excerpt: (§2) For each condition, 20,000 cells were counted per replicate (N=3). Line graphs (right) were made to better illustrate the relative changes in the cell cycle phases for the different treatments. Bars show standard deviation. The asterisks indicate the first statistically significant change in the G0/G1 and G2/M populations determined by a two-way ANOVA with a post-hoc Tukey's multiple comparisons test using 95% confidence intervals. FIG. 2B) is a line graph showing the percentage of HCT116 (p53−/−) cells, A549 cells, HeLa cells and H1299 cells in mitosis after treatment with various concentrations of C75 for one population doubling time. All of the cell lines show an increase in the proportion of mitotic cells after treatment with 200 nM C75. The bars indicate standard deviation. […] While the mitotic spindles were not dramatically altered by C75 in HFF1 cells, they were monopolar (as shown) or fragmented in the other cell types. […] The mitotic spindles were more strongly fragmented after C75 treatment in these cells vs. the cells in FIG. 2C). FIG. 2E) are images showing fixed HFF1, HeLa, A549 and HCT 116 cells co-stained for γ-tubulin (spindle poles; white) and ACA (centromeres; light grey) 4 hours after treatment with 300 nM C87 (control) or 300 nM C75. Cartoon schematics show examples of the different spindle phenotypes, including bipolar with aligned chromosomes (top), bipolar with misaligned chromosomes (upper middle), multipolar/fragmented (lower middle), or monopolar (bottom), and the proportion of that phenotype is shown in the top right corner of each image. FIG. 2F) is a bar graph showing the proportion of the different spindle phenotypes for HFF1, HeLa, A549 and HCT 116 cells treated as in FIG. 2E) (n=1355; N=3). Bars show standard deviation. […] While mitotic spindles recovered bipolarity after removing nocodazole, they remained multipolar after removing C75. […] FIG. 2J) is a bar graph showing the proportion of cells with monopolar (black), bipolar (dark grey) or multipolar (light grey) spindles. Bars show standard deviation. FIG. 2K) is a series of time-lapse images of a live HeLa cell expressing GFP:tubulin after treatment with C75 as shown in 2G). […] Drugs were not washed out. […]
# as §1
# HCT116 cells [1] = assay: as above; type: cell-based; details: 300 nM for 4 hours
# Excerpt: as §2, §1
# A549 cells = assay: IC50 of derivatives (Table 5); type: cell-based, human; details: Homo sapiens; Table 5; cell line only named in b213 (A549)
# HCT116 cells [2] = assay: Viability IC50 of C75 in combination with subthreshold colchicine; type: cell-based; details: + 3 nM colchicine
# Excerpt: Bars show standard deviation. […] The scale bar for all cells is 10 μm. In FIG. 4F), bar graphs show changes in the proportion of HCT 116 cells with the different spindle phenotypes as in FIG. 4D (n=2368; N=3). […] Bars indicate standard deviation.
# S2 cells = assay: Spindle phenotypes in live S2 cells expressing GFP-tagged tubulin; type: cell-based, Drosophila; details: 300 nM
# Excerpt: This will permit using Drosophila proteins for binding studies in vitro, and genetics-based tools for further study of the target.
# [3] = tested on: HCT116 cells with lower levels of endogenous MCAK (MCAK RNAi); assay: Spindle phenotypes with MCAK RNAi; type: cell-based; details: 300 nM C75
# Procedure: FIG. 9A) is a series of images of HCT116 cells with lower levels of endogenous MCAK (MCAK RNAi), stained for DAPI (DNA) and tubulin (microtubules), and treated with 300 nM C75 or control. FIG. 9B) is a bar graph showing the proportion of spindle phenotypes in HCT116 cells treated as in 9A). The multipolar spindle phenotypes caused by C75 are suppressed by MCAK RNAi.
# It was observed that the proportion of multipolar spindles caused by C75 are decreased after MCAK depletion.
compound,measurement,setting,value
COc1ccc(S(=O)(=O)N2Cc3ccccc3-c3sc(Br)cc32)cc1 [Compound C75],spindles reformed after drug removal,HeLa cells in metaphase,tri- or multipolar spindles formed
same,cells with bipolar spindles with aligned chromosomes,HFF-1 cells,88%
same,cells with bipolar spindles with misaligned chromosomes,HCT116 cells [1],22%
same,cells with monopolar spindles,HCT116 cells [1],35%
same,cells with multipolar or fragmented spindles,HCT116 cells [1],13%
same,IC50,A549 cells,431 nM
same,lowering of the IC50 of C75 by subthreshold colchicine,HCT116 cells [2],~2 fold
same,spindle phenotype in Drosophila S2 cells,S2 cells,spindle phenotypes similar to what was observed in mammalian cells
same,suppression of multipolar spindle phenotypes by MCAK RNAi,[3],suppressed
